# According to ChEMBL document CHEMBL5036351, “Discovery of novel, potent and orally efficacious inhibitor of neutral amino acid transporter B0AT1 (SLC6A19)” (Bioorg Med Chem Lett, 2021):
# Key:
# [1] = Inhibition of B0AT1 (unknown origin) by radiolabled uptake assay; parameters: species or system Homo sapiens
# Cytochrome P450 2C9 = Cytochrome P450 2C9 (Homo sapiens, UniProt P11712); assay: Inhibition of CYP2C9 (unknown origin); assay type: ADME
# [2] = Cmax in C57BL/6 mouse at 3 mg/kg, po; assay type: ADME, organism-based; parameters: route oral, dose 3 mg/kg; details: in vivo
# [3] = Metabolic stability in human liver microsomes; assay type: ADME, Microsome
# [4] = Half life in C57BL/6 mouse at 1 mg/kg, iv; assay type: ADME, organism-based; details: in vivo
# Mus musculus [5] = assay: Anti-obesity activity in C57BL/6J mouse model of diet-induced obesity assessed as reduction in area under curve at 25 mg/kg, po dosed once daily for 28 days by insulin tolerance test; assay type: functional; parameters: scale not given: the % may be the effect or the level left; details: time 28 day
# [6] = Tmax in C57BL/6 mouse at 3 mg/kg, po; assay type: ADME, organism-based; details: in vivo
# [7] = MRT in C57BL/6 mouse at 1 mg/kg, iv; assay type: ADME, organism-based; details: in vivo
# Cytochrome P450 3A4 = Cytochrome P450 3A4 (Homo sapiens, UniProt P08684); assay: Inhibition of CYP3A4 (unknown origin); assay type: ADME
# Sequence of Cytochrome P450 3A4 (P08684 whole entry): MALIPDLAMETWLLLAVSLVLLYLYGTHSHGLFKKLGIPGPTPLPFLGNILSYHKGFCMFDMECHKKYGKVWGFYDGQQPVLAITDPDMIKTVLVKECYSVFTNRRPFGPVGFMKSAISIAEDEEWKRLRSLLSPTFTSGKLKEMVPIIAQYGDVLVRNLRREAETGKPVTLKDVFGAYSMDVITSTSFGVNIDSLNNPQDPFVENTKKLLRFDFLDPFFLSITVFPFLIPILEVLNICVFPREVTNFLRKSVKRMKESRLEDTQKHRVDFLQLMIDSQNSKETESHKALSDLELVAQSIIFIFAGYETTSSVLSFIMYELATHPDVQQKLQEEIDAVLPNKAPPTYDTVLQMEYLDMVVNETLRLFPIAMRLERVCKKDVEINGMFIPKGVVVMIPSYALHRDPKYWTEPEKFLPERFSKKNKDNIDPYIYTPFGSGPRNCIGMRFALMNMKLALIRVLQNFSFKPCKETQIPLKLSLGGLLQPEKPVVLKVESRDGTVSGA
# Cytochrome P450 2C19 = Cytochrome P450 2C19 (Homo sapiens, UniProt P33261); assay: Inhibition of CYP2C19 (unknown origin); assay type: ADME
# Sequence of Cytochrome P450 2C19 (P33261 whole entry): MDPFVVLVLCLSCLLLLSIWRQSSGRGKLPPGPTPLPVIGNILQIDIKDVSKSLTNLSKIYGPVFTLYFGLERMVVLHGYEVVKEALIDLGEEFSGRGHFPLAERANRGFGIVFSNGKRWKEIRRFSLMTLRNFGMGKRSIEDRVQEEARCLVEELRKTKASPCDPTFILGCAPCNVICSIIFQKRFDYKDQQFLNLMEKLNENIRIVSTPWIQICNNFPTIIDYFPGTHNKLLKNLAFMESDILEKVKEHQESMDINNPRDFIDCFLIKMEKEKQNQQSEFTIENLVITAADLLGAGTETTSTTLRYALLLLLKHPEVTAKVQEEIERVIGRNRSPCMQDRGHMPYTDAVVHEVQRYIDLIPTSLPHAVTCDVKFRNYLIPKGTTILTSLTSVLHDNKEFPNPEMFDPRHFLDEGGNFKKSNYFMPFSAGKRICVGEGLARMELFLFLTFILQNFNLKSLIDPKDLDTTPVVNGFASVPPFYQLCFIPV
# [8] = Metabolic stability in rat liver microsomes; assay type: ADME, Microsome
# [9] = Metabolic stability in mouse liver microsomes; assay type: ADME, Microsome
# [10] = Initial plasma concentration in C57BL/6 mouse at 1 mg/kg, iv; assay type: ADME, organism-based
# [11] = Metabolic stability in dog liver microsomes; assay type: ADME, Canis lupus familiaris, Microsome
# Cytochrome P450 2C8 = molecular target: T1, Cytochrome P450 2C8 (Homo sapiens, UniProt P10632); assay: Inhibition of CYP2C8 (unknown origin); assay type: ADME
# T1 sequence (P10632 whole entry): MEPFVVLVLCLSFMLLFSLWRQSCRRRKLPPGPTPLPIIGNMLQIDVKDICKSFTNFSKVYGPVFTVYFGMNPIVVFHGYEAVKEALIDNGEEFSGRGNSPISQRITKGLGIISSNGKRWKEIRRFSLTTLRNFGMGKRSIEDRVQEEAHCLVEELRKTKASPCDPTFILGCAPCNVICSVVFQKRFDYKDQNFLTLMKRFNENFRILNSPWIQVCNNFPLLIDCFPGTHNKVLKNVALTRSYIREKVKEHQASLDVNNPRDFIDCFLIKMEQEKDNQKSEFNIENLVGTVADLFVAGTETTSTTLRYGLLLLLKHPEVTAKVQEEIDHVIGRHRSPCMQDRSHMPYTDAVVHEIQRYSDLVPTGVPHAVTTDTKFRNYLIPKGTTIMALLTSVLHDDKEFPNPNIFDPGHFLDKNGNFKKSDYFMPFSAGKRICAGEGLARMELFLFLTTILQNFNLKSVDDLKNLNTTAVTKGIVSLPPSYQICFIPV
# Mus musculus [12] = assay: Anti-obesity activity in high fat diet induced C57BL/6J mouse model assessed as change in body weight at 25 mg/kg, po dosed once daily for 28 days; assay type: functional; details: time 28 day
# [13] = AUC (0 to t) in C57BL/6 mouse at 1 mg/kg, iv; assay type: ADME, organism-based; parameters: dose 1 mg/kg; details: in vivo
# [14] = Volume of distribution at steady state in C57BL/6 mouse at 1 mg/kg, iv; assay type: ADME, organism-based; details: in vivo, read-out: Vdss
# [15] = Bioavailability in C57BL/6 mouse at 1 mg/kg, iv; assay type: ADME, organism-based; details: in vivo
# [16] = MRT in C57BL/6 mouse at 3 mg/kg, po; assay type: ADME, organism-based; details: in vivo
# [17] = Half life in C57BL/6 mouse at 3 mg/kg, po; assay type: ADME, organism-based; details: in vivo
# [18] = AUC (0 to t) in C57BL/6 mouse at 3 mg/kg, po; assay type: ADME, organism-based; parameters: dose 3 mg/kg; details: in vivo
# [19] = Clearance in C57BL/6 mouse at 1 mg/kg, iv; assay type: ADME, organism-based; details: in vivo
# [20] = Inhibition of B0AT1 (unknown origin) by FLIPR assay; parameters: species or system Homo sapiens
# Sequence of Cytochrome P450 2C9 (P11712 whole entry): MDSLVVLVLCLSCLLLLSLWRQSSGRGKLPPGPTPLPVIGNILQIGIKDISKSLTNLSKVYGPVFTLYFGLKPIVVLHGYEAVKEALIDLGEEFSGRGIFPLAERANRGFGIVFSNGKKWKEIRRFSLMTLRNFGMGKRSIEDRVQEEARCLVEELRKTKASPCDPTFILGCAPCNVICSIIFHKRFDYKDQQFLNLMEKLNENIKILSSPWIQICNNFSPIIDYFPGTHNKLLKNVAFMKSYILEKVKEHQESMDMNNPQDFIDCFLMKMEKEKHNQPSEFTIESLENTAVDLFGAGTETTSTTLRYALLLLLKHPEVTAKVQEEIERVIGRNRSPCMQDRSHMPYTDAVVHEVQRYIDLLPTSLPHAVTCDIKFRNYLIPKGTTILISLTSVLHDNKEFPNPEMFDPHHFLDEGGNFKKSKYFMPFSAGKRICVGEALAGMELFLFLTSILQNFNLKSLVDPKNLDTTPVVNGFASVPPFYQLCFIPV
compound,measurement,setting,value
O=S(=O)(Nc1ccc(C(F)(F)F)cc1Oc1ccccc1)c1ccccc1,IC50,[1],> 10000 nM
CS(=O)(=O)Nc1ccc([N+](=O)[O-])cc1Oc1ccccc1 [NIMESULIDE],IC50,[1],23000 nM
O=S(=O)(Nc1ccc(S(=O)(=O)C(F)(F)F)cc1Oc1cccc(F)c1)c1ccccc1,IC50,[1],150 nM
O=S(=O)(Nc1ccc(S(=O)(=O)C(F)(F)F)cc1Sc1ccccc1)c1ccccc1,IC50,[1],800 nM
O=S(=O)(Nc1ccc(S(=O)(=O)C(F)(F)F)cc1-c1ccccc1)c1ccccc1,IC50,[1],370 nM
Cc1cc(C)cc(Oc2cc(S(=O)(=O)C(F)(F)F)ccc2NS(=O)(=O)c2ccccc2)c1,IC50,[1],440 nM
COc1cccc(Oc2cc(S(=O)(=O)C(F)(F)F)ccc2NS(=O)(=O)c2ccccc2)c1,IC50,[1],460 nM
O=S(=O)(Nc1ccc(S(=O)(=O)C(F)(F)F)cc1Oc1cc(F)cc(F)c1)c1ccccc1,inhibition (INH),Cytochrome P450 2C9,Active
same,Cmax,[2],3770 ng/mL
same,Stability,[3],Stable
same,half-life,[4],4.05 h
same,Activity,Mus musculus [5],22.9%
same,Tmax,[6],2 h
same,MRT,[7],5.74 h
same,inhibition (INH),Cytochrome P450 3A4,Active
same,inhibition (INH),Cytochrome P450 2C19,Active
same,Stability,[8],Stable
same,Stability,[9],Stable
same,C0,[10],6680 ng/mL
same,Stability,[11],Stable
same,inhibition (INH),Cytochrome P450 2C8,Active
same,Activity,Mus musculus [12],-8.9%
same,AUC(0-t),[13],16200 ng·h/mL
same,Vd,[14],0.35 L/kg
same,IC50,[1],35 nM
same,bioavailability,[15],64%
same,MRT,[16],6.73 h
same,half-life,[17],5.39 h
same,AUC(0-t),[18],31300 ng·h/mL
same,clearance,[19],1.01 mL/min/kg
O=S(=O)(Nc1ccc(S(=O)(=O)C(F)(F)F)cc1S(=O)(=O)c1ccccc1)c1ccccc1,IC50,[1],> 1000 nM
COc1ccc(C(CCCN2CCOCC2)c2ccc(C)cc2)cc1 (configuration not stated),IC50,[20],20000 nM
same,IC50,[1],16000 nM
O=S(=O)(Nc1ccc(S(=O)(=O)C(F)(F)F)cc1Oc1ccc(Cl)cc1)c1ccccc1,IC50,[1],> 1000 nM
O=S(=O)(Nc1ccc(S(=O)(=O)C(F)(F)F)cc1Oc1cccc(Cl)c1)c1ccccc1,IC50,[1],> 1000 nM
O=S(=O)(Nc1ccc(S(=O)(=O)C(F)(F)F)cc1Oc1ccc(Cl)c(Cl)c1)c1ccccc1,IC50,[1],1000 nM
CN1C2CCC1CC(OC(c1ccccc1)c1ccccc1)C2 (configuration not stated),IC50,[20],44000 nM
same,IC50,[1],71000 nM
O=S(=O)(Nc1ccc(S(=O)(=O)C(F)(F)F)cc1Oc1ccccc1)c1ccccc1,IC50,[1],190 nM
O=S(=O)(Nc1ccc(S(=O)(=O)C(F)(F)F)cc1Oc1cccnc1)c1ccccc1,IC50,[1],> 1000 nM
O=S(=O)(Nc1ccc(S(=O)(=O)C(F)(F)F)cc1OCc1ccccc1)c1ccccc1,IC50,[1],1000 nM
COc1ccc(Oc2cc(S(=O)(=O)C(F)(F)F)ccc2NS(=O)(=O)c2ccccc2)cc1OC,IC50,[1],> 1000 nM
O=S(=O)(Nc1ccc(F)cc1Oc1ccccc1)c1ccccc1,IC50,[1],> 10000 nM
O=S(=O)(Nc1ccc(S(=O)(=O)C(F)(F)F)cc1Oc1ccc(C(F)(F)F)cc1)c1ccccc1,IC50,[1],520 nM
COc1ccc(Oc2cc(S(=O)(=O)C(F)(F)F)ccc2NS(=O)(=O)c2ccccc2)cc1,IC50,[1],600 nM
c1ccc(CCCN2CCCCC2Cc2ccccc2)cc1 (configuration not stated),IC50,[20],90000 nM
same,IC50,[1],78000 nM
O=C(c1ccccc1)c1cc(S(=O)(=O)C(F)(F)F)ccc1NS(=O)(=O)c1ccccc1,IC50,[1],600 nM
N=C(N)c1ccc(NS(=O)(=O)c2ccccc2)c(Oc2ccccc2)c1,IC50,[1],> 10000 nM
CCNC(=O)/C=C/c1cccc(Br)c1 [CINROMIDE],IC50,[20],280 nM
same,IC50,[1],370 nM
N#Cc1ccc(NS(=O)(=O)c2ccccc2)c(Oc2ccccc2)c1,IC50,[1],> 10000 nM
O=S(=O)(Nc1ccc(S(=O)(=O)C(F)(F)F)cc1Nc1ccccc1)c1ccccc1,IC50,[1],690 nM
Cc1cc(C(=O)Nc2ccc(Cl)cc2C(F)(F)F)no1,IC50,[20],1900 nM
same,IC50,[1],3900 nM
N#Cc1ccc(Oc2cc(S(=O)(=O)C(F)(F)F)ccc2NS(=O)(=O)c2ccccc2)cc1,IC50,[1],> 1000 nM
COC(=O)c1ccc(NS(=O)(=O)c2ccccc2)c(Oc2ccccc2)c1,IC50,[1],> 10000 nM
O=S(=O)(Nc1ccc(S(=O)(=O)C(F)(F)F)cc1Oc1ccc(F)c(F)c1)c1ccccc1,IC50,[1],90 nM
O=C(O)c1ccc(NS(=O)(=O)c2ccccc2)c(Oc2ccccc2)c1,IC50,[1],> 10000 nM
NC(c1ccccc1)c1cc(S(=O)(=O)C(F)(F)F)ccc1NS(=O)(=O)c1ccccc1 (configuration not stated),IC50,[1],> 1000 nM
COc1cc(F)cc(Oc2cc(S(=O)(=O)C(F)(F)F)ccc2NS(=O)(=O)c2ccccc2)c1,IC50,[1],100 nM
O=S(=O)(Nc1ccc(S(=O)(=O)C(F)(F)F)cc1C(O)c1ccccc1)c1ccccc1 (configuration not stated),IC50,[1],320 nM
N=C(NO)c1ccc(NS(=O)(=O)c2ccccc2)c(Oc2ccccc2)c1,IC50,[1],> 10000 nM
O=S(=O)(Nc1ccc(S(=O)(=O)C(F)F)cc1Oc1ccccc1)c1ccccc1,IC50,[1],> 10000 nM
O=C(Nc1ccccc1)c1cc(S(=O)(=O)C(F)(F)F)ccc1NS(=O)(=O)c1ccccc1,IC50,[1],> 1000 nM
O=S(=O)(Nc1ccc(S(=O)(=O)C(F)(F)F)cc1Oc1ccc(F)cc1)c1ccccc1,IC50,[1],200 nM
O=C(NO)c1ccc(NS(=O)(=O)c2ccccc2)c(Oc2ccccc2)c1,IC50,[1],> 10000 nM
CCc1ccc(CCOc2ccc(CC3SC(=O)NC3=O)cc2)nc1 (configuration not stated) [PIOGLITAZONE],Activity,Mus musculus [5],-36%
same,Activity,Mus musculus [12],6%
Cc1cccc(Oc2cc(S(=O)(=O)C(F)(F)F)ccc2NS(=O)(=O)c2ccccc2)c1,IC50,[1],1000 nM
NC(=O)c1ccc(NS(=O)(=O)c2ccccc2)c(Oc2ccccc2)c1,IC50,[1],> 10000 nM
O=S(=O)(Nc1ccc(-c2nn[nH]n2)cc1Oc1ccccc1)c1ccccc1,IC50,[1],> 10000 nM
O=[N+]([O-])c1ccc(NS(=O)(=O)c2ccccc2)c(Oc2ccccc2)c1,IC50,[1],200 nM
CN(C)c1cccc(Oc2cc(S(=O)(=O)C(F)(F)F)ccc2NS(=O)(=O)c2ccccc2)c1,IC50,[1],> 1000 nM
CS(=O)(=O)c1ccc(NS(=O)(=O)c2ccccc2)c(Oc2ccccc2)c1,IC50,[1],> 10000 nM
O=S(=O)(Nc1ccc(S(=O)(=O)C(F)(F)F)cc1OC1CCCCC1)c1ccccc1,IC50,[1],> 1000 nM
Cc1ccc(Oc2cc(S(=O)(=O)C(F)(F)F)ccc2NS(=O)(=O)c2ccccc2)cc1,IC50,[1],> 1000 nM
